Experimental data taken from US7138361B2, “Herbicidal heterocycles” (E. I. du Pont de Nemours and Company, priority 2000, dated 2006).

Assays:
Format in all cases: in vivo
[1] = test system: woolly cupgrass (Eriochloa villosa); assay: Test C preemergence; conditions: for Plant response rating (0 to 100), Cupgrass, Woolly: visual evaluation after 12 to 14 days
In short: (§1)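 Pre- and postemergence treatments used a non-phytotoxic solvent/surfactant formulation; post-treated plants measured 2 to 18 cm. Greenhouse hold 12–14 d; % control estimated visually relative to controls.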

[2] = test system: Nightshade; assay: Test C preemergence
[3] = test system: common ragweed (Ambrosia elatior); assay: Test C preemergence; conditions: for Plant response rating (0 to 100), Ragweed, Common: visual evaluation after 12 to 14 days
In short: as §1

[4] = test system: crabgrass (Digitaria sanguinalis); assay: Test C preemergence; conditions: for Plant response rating (0 to 100), Crabgrass: visual evaluation after 12 to 14 days
In short: as §1

[5] = test system: soybean (Glycine max); assay: Test C preemergence; conditions: for Plant response rating (0 to 100), Soybean: visual evaluation after 12 to 14 days
In short: as §1

[6] = test system: pigweed (Amaranthus retroflexus); assay: Test C preemergence; conditions: for Plant response rating (0 to 100), Pigweed: visual evaluation after 12 to 14 days
In short: as §1

[7] = test system: lambsquarters (Chenopodium album); assay: Test C preemergence; conditions: for Plant response rating (0 to 100), Lambsquarters: visual evaluation after 12 to 14 days
In short: as §1

[8] = test system: cocklebur (Xanthium strumarium); assay: Test C preemergence; conditions: for Plant response rating (0 to 100), Cocklebur: visual evaluation after 12 to 14 days
In short: as §1

[9] = test system: goosegrass (Eleusine indica); assay: Test C preemergence; conditions: for Plant response rating (0 to 100), Goosegrass: visual evaluation after 12 to 14 days
In short: as §1

[10] = test system: Surinam grass (Brachiaria decumbens); assay: Test C preemergence; conditions: for Plant response rating (0 to 100), Surinam grass: visual evaluation after 12 to 14 days
In short: as §1

[11] = test system: corn (Zea mays); assay: Test B preemergence
In short: (§2)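 Visual injury scores, 0 = no effect to 100 = complete control, assigned against controls after 13 to 15 days in the greenhouse. Compounds formulated in non-phytotoxic solvent plus surfactant and applied to soil after planting (pre) or onto foliage of 1- to 4-leaf plants (post).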

[12] = test system: giant foxtail (Setaria faberii); assay: Test B preemergence
In short: as §2

[13] = test system: crabgrass (Digitaria sanguinalis); assay: Test B preemergence
In short: as §2

[14] = test system: pigweed (Amaranthus retroflexus); assay: Test B preemergence
In short: as §2

[15] = test system: lambsquarters (Chenopodium album); assay: Test B preemergence
In short: as §2

[16] = test system: barnyardgrass (Echinochloa crus-galli); assay: Test B preemergence
In short: as §2

[17] = test system: cocklebur (Xanthium strumarium); assay: Test B preemergence
In short: as §2

[18] = test system: morning glory (Ipomoea hederacea); assay: Test B preemergence
In short: as §2

[19] = test system: velvetleaf (Abutilon theophrasti); assay: Test B preemergence
In short: as §2

[20] = test system: Surinam grass (Brachiaria decumbens); assay: Test B preemergence
In short: as §2

[21] = test system: rice (Oryza saliva); assay: Test B preemergence
In short: as §2

[22] = Preemergence, Rate 500 g/ha, scale 0 to 100
[23] = Rate 62 g/ha, scale 0 to 100, 0 no effect, 100 complete control
[24] = preemergence, Rate 125 g/ha, scale 0 to 100, 0 no effect, 100 complete control
[25] = Rate 125 g/ha, scale 0 to 100, 0 no effect, 100 complete control
[26] = Preemergence, Rate 500 g/ha, scale 0 to 100, 0 no effect, 100 complete control
[27] = preemergence, Rate 125 g/ha, scale of 0 to 100 where 0 is no effect and 100 is complete control, 13 to 15 days
[28] = preemergence, Rate 62 g/ha, scale 0 to 100
[29] = preemergence, Rate 250 g/ha, scale 0 to 100, 0 no effect, 100 complete control

O=C1C(n2ccc(C3CCCCC3)n2)SCN1c1cccc(OC(F)(F)F)c1 (stereo not drawn) [Compound 50]
Plant response rating, Cupgrass, Woolly [1, 22]: 90 | Plant response rating, Cupgrass, Woolly [1, 23]: 20 | Plant response rating (0 to 100), Cupgrass, Woolly ([1]; preemergence, Rate 250 g/ha): 90 | Plant response rating, Cupgrass, Woolly [1, 24]: 20 | Plant response rating, Nightshade ([2]; Rate 62 g/ha; scale 0 to 100, 0 no effect, 100 complete control): 0 | Plant response rating, Nightshade [2, 25]: 0 | Plant response rating, Nightshade ([2]; Rate 500 g/ha, scale 0 to 100): 60 | Plant response rating, Ragweed, Common [3, 22]: 40 | Plant response rating, Ragweed, Common [3, 23]: 20 | Plant response rating (0 to 100), Ragweed, Common ([3]; preemergence, Rate 250 g/ha): 40 | Plant response rating, Ragweed, Common [3, 24]: 30 | Plant response rating, Crabgrass [4, 22]: 100 | Plant response rating, Crabgrass [4, 23]: 100 | Plant response rating (0 to 100), Crabgrass ([4]; preemergence, Rate 250 g/ha): 100 | Plant response rating, Crabgrass [4, 24]: 100 | Plant response rating, Soybean [5, 22]: 40 | Plant response rating (0 to 100), Soybean ([5]; preemergence, Rate 250 g/ha): 0 | Plant response rating, Soybean [5, 24]: 0 | Plant response rating, Pigweed [6, 22]: 90 | Plant response rating, Pigweed [6, 23]: 30 | Plant response rating (0 to 100), Pigweed ([6]; preemergence, Rate 250 g/ha): 20 | Plant response rating, Pigweed [6, 24]: 20 | Plant response rating, Lambsquarters [7, 22]: 70 | Plant response rating, Lambsquarters [7, 23]: 20 | Plant response rating (0 to 100), Lambsquarters ([7]; preemergence, Rate 250 g/ha): 70 | Plant response rating, Lambsquarters [7, 24]: 50 | Plant response rating, Cocklebur [8, 22]: 0 | Plant response rating (0 to 100), Cocklebur ([8]; preemergence, Rate 250 g/ha): 0 | Plant response rating, Cocklebur [8, 24]: 0 | Plant response rating, Goosegrass [9, 22]: 100 | Plant response rating, Goosegrass [9, 23]: 80 | Plant response rating (0 to 100), Goosegrass ([9]; preemergence, Rate 250 g/ha): 100 | Plant response rating, Goosegrass [9, 24]: 90 | Plant response rating, Surinam grass [10, 22]: 50 | Plant response rating, Surinam grass [10, 23]: 20 | Plant response rating (0 to 100), Surinam grass ([10]; preemergence, Rate 250 g/ha): 50 | Plant response rating, Surinam grass [10, 24]: 30 | Plant response rating, Corn [11, 26]: 0 | Plant response rating, Corn [11, 27]: 0 | Plant response rating, Foxtail, Giant [12, 26]: 100 | Plant response rating, Foxtail, Giant [12, 27]: 20 | Plant response rating, Crabgrass [13, 26]: 100 | Plant response rating, Crabgrass [13, 27]: 100 | Plant response rating, Pigweed [14, 26]: 0 | Plant response rating, Pigweed [14, 27]: 0 | Plant response rating, Lambsquarters [15, 26]: 90 | Plant response rating, Lambsquarters [15, 27]: 0 | Plant response rating, Barnyardgrass [16, 26]: 90 | Plant response rating, Barnyardgrass [16, 27]: 0 | Plant response rating, Cocklebur [17, 26]: 0 | Plant response rating, Cocklebur [17, 27]: 0 | Plant response rating, Morningglory [18, 26]: 0 | Plant response rating, Morningglory [18, 27]: 0 | Plant response rating, Velvetleaf [19, 26]: 100 | Plant response rating, Velvetleaf [19, 27]: 100 | Plant response rating, Surinam grass [20, 26]: 30 | Plant response rating, Surinam grass [20, 27]: 0 | Plant response rating, Rice [21, 26]: 0 | Plant response rating, Rice [21, 27]: 0

CSc1cccc(N2CCC(n3ccc(C(C)(C)C)n3)C2=O)c1 (stereo not drawn) [Compound 86]
Plant response rating, Cupgrass, Woolly [1, 25]: 30 | Plant response rating, Cupgrass, Woolly [1, 28]: 30 | Plant response rating (0 to 100), Cupgrass, Woolly ([1]; preemergence, Rate 250 g/ha): 90 | Plant response rating (0 to 100), Cupgrass, Woolly ([1]; preemergence, Rate 500 g/ha): 100 | Plant response rating, Nightshade ([2]; Rate 62 g/ha, scale 0 to 100): 0 | Plant response rating, Nightshade ([2]; Rate 125 g/ha; scale 0 to 100, 0 no effect, 100 complete control): 0 | Plant response rating, Nightshade ([2]; Rate 250 g/ha, scale 0 to 100, 0 no effect, 100 complete control): 0 | Plant response rating, Ragweed, Common [3, 25]: 0 | Plant response rating, Ragweed, Common [3, 28]: 0 | Plant response rating (0 to 100), Ragweed, Common ([3]; preemergence, Rate 500 g/ha): 0 | Plant response rating, Ragweed, Common [3, 29]: 0 | Plant response rating, Crabgrass [4, 25]: 90 | Plant response rating, Crabgrass [4, 28]: 0 | Plant response rating (0 to 100), Crabgrass ([4]; preemergence, Rate 250 g/ha): 100 | Plant response rating (0 to 100), Crabgrass ([4]; preemergence, Rate 500 g/ha): 100 | Plant response rating, Soybean [5, 25]: 0 | Plant response rating, Soybean [5, 28]: 0 | Plant response rating (0 to 100), Soybean ([5]; preemergence, Rate 500 g/ha): 0 | Plant response rating, Soybean [5, 29]: 0 | Plant response rating, Pigweed [6, 25]: 100 | Plant response rating, Pigweed [6, 28]: 70 | Plant response rating (0 to 100), Pigweed ([6]; preemergence, Rate 500 g/ha): 100 | Plant response rating, Pigweed [6, 29]: 0 | Plant response rating, Lambsquarters [7, 25]: 100 | Plant response rating, Lambsquarters [7, 28]: 100 | Plant response rating (0 to 100), Lambsquarters ([7]; preemergence, Rate 500 g/ha): 100 | Plant response rating, Lambsquarters [7, 29]: 100 | Plant response rating, Cocklebur [8, 25]: 0 | Plant response rating, Cocklebur [8, 28]: 0 | Plant response rating (0 to 100), Cocklebur ([8]; preemergence, Rate 250 g/ha): 0 | Plant response rating (0 to 100), Cocklebur ([8]; preemergence, Rate 500 g/ha): 0 | Plant response rating, Goosegrass [9, 25]: 90 | Plant response rating, Goosegrass [9, 28]: 100 | Plant response rating (0 to 100), Goosegrass ([9]; preemergence, Rate 250 g/ha): 100 | Plant response rating (0 to 100), Goosegrass ([9]; preemergence, Rate 500 g/ha): 100 | Plant response rating, Surinam grass [10, 25]: 20 | Plant response rating, Surinam grass [10, 28]: 20 | Plant response rating (0 to 100), Surinam grass ([10]; preemergence, Rate 250 g/ha): 20 | Plant response rating (0 to 100), Surinam grass ([10]; preemergence, Rate 500 g/ha): 30 | Plant response rating, Corn [11, 26]: 20 | Plant response rating, Corn [11, 27]: 0 | Plant response rating, Foxtail, Giant [12, 26]: 100 | Plant response rating, Foxtail, Giant [12, 27]: 80 | Plant response rating, Crabgrass [13, 26]: 100 | Plant response rating, Crabgrass [13, 27]: 0 | Plant response rating, Pigweed [14, 26]: 100 | Plant response rating, Pigweed [14, 27]: 100 | Plant response rating, Lambsquarters [15, 26]: 100 | Plant response rating, Lambsquarters [15, 27]: 100 | Plant response rating, Barnyardgrass [16, 26]: 100 | Plant response rating, Barnyardgrass [16, 27]: 0 | Plant response rating, Cocklebur [17, 26]: 0 | Plant response rating, Cocklebur [17, 27]: 0 | Plant response rating, Morningglory [18, 26]: 0 | Plant response rating, Morningglory [18, 27]: 0 | Plant response rating, Velvetleaf [19, 26]: 0 | Plant response rating, Velvetleaf [19, 27]: 0 | Plant response rating, Surinam grass [20, 26]: 60 | Plant response rating, Surinam grass [20, 27]: 0 | Plant response rating, Rice [21, 26]: 0 | Plant response rating, Rice [21, 27]: 0
